Measured values from PubChem BioAssay AID328 (DTP/NCI, 2004).
Where “and” joins values, the source holds several entries; their conditions need not be identical. Equal values may be shown once. Toxic doses and inconclusive results are not listed.

Tested on: BDF1 mice, P388 leukemia ip, median survival T/C
Experiment: NCI In Vivo Anticancer Drug Screen. Data for tumor model P388 Leukemia (intraperitoneal) in B6D2F1 (BDF1) mice
Details: endpoint: median survival time, higher = longer survival
Procedure, shortened: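 Vehicle-dosed animals serve as the reference; survival of compound-dosed, tumour-implanted mice is divided by it.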

[1] = dose: 100.0 mg/kg/injection, schedule: Q04DX003 (ip), vehicle: saline with Tween-80
[2] = dose: 6.25 mg/kg/injection, schedule: Q01DX009 (ip), vehicle: saline
[3] = dose: 12.5 mg/kg/injection, schedule: Q01DX009 (ip), vehicle: saline
[4] = dose: 25.0 mg/kg/injection, schedule: Q01DX009 (ip), vehicle: saline
[5] = dose: 25.0 mg/kg/injection, schedule: Q01DX009 (ip), vehicle: saline with Tween-80
[6] = dose: 50.0 mg/kg/injection, schedule: Q01DX009 (ip), vehicle: saline with Tween-80
[7] = dose: 100.0 mg/kg/injection, schedule: Q01DX009 (ip), vehicle: saline with Tween-80
[8] = dose: 200.0 mg/kg/injection, schedule: Q04DX003 (ip), vehicle: saline with Tween-80
[9] = dose: 400.0 mg/kg/injection, schedule: Q04DX003 (ip), vehicle: saline with Tween-80
[10] = dose: 50.0 mg/kg/injection, schedule: Q01DX009 (ip), vehicle: Klucel (hydroxypropylcellulose) (HPC)
[11] = dose: 200.0 mg/kg/injection, schedule: Q01DX009 (ip), vehicle: saline with Tween-80
[12] = dose: 50.0 mg/kg/injection, schedule: Q01DX009 (ip), vehicle: saline
[13] = dose: 50.0 mg/kg/injection, schedule: Q04DX003 (ip), vehicle: saline with Tween-80

Cc1ccc(N=C=O)cc1[N+](=O)[O-]
T/C (dose: 25.0 mg/kg/injection, schedule: Q01DX009 (ip), vehicle: gum acacia): 100 % of control
T/C (dose: 50.0 mg/kg/injection, schedule: Q01DX009 (ip), vehicle: gum acacia): 100 % of control
T/C (dose: 100.0 mg/kg/injection, schedule: Q04DX003 (ip), vehicle: gum acacia): 91 % of control
T/C (dose: 200.0 mg/kg/injection, schedule: Q04DX003 (ip), vehicle: gum acacia): 95 % of control
T/C (dose: 400.0 mg/kg/injection, schedule: Q04DX003 (ip), vehicle: gum acacia): 95 % of control

C[N-]N(C)C(=O)[S-].C[N-]N(C)C(=O)[S-].C[N-]N(C)C(=O)[S-].[Co]
T/C [1]: 105 % of control

Brc1ccc(C[n+]2ccccc2)cc1
T/C [2]: 91 % of control
T/C [3]: 87 % of control
T/C [4]: 95 % of control
T/C (dose: 25.0 mg/kg/injection, schedule: Q04DX003 (ip), vehicle: saline): 100 % of control

CC(=O)[C@H]1CC[C@H]2[C@@H]3C[C@H](C)C4=CC(=O)CC[C@]4(C)[C@@]3(F)[C@@H](O)C[C@]12C
T/C [5]: 118 % of control
T/C [6]: 109 % of control
T/C [7]: 104 % of control and 109 % of control

COc1ccc(CCNC(=O)Cc2ccc(OC)c(OC)c2)cc1OC
T/C [1]: 100 % of control
T/C [8]: 95 % of control
T/C [9]: 100 % of control

CCOC(=O)c1ccc(NC(C)=O)c(CSC)c1
T/C (dose: 50.0 mg/kg/injection, schedule: Q04DX002 (ip), vehicle: saline with Tween-80): 107 % of control
T/C (dose: 100.0 mg/kg/injection, schedule: Q04DX002 (ip), vehicle: saline with Tween-80): 98 % of control
T/C (dose: 200.0 mg/kg/injection, schedule: Q04DX002 (ip), vehicle: saline with Tween-80): 99 % of control

Cc1cc(Cl)n[nH]1
T/C [5]: 98 % of control

CCOC(=O)C1c2cccc(O)c2C=CN1C(C)=O (configuration not stated)
T/C [1]: 91 % of control
T/C [8]: 91 % of control
T/C [9]: 95 % of control

Cc1cc(=O)c2cccc(C)c2[nH]1
T/C [10]: 96 % of control
T/C (dose: 100.0 mg/kg/injection, schedule: Q01DX009 (ip), vehicle: Klucel (hydroxypropylcellulose) (HPC)): 96 % of control
T/C (dose: 100.0 mg/kg/injection, schedule: Q04DX003 (ip), vehicle: Klucel (hydroxypropylcellulose) (HPC)): 95 % of control
T/C (dose: 200.0 mg/kg/injection, schedule: Q01DX009 (ip), vehicle: Klucel (hydroxypropylcellulose) (HPC)): 92 % of control
T/C (dose: 200.0 mg/kg/injection, schedule: Q04DX003 (ip), vehicle: Klucel (hydroxypropylcellulose) (HPC)): 91 % of control

CC12CCC3C(CCC4CC5(CCC43C)CO5)C1CCC2=O (configuration not stated)
T/C [1]: 103 % of control
T/C [8]: 103 % of control
T/C [9]: 98 % of control

COc1cccc(OC)c1-c1oc2ccccc2c(=O)c1O
T/C [7]: 107 % of control
T/C [1]: 104 % of control
T/C [11]: 100 % of control
T/C [8]: 109 % of control
T/C (dose: 400.0 mg/kg/injection, schedule: Q01DX009 (ip), vehicle: saline with Tween-80): 100 % of control
T/C [9]: 100 % of control

CC1(C)N=C(N)N=C(N)N1c1ccc(OCCNC(=O)Nc2ccc(S(=O)(=O)F)cc2)c(Cl)c1
T/C (dose: 4.8 mg/kg/injection, schedule: Q01DX009 (ip), vehicle: saline): 118 % of control
T/C [4]: 175 % of control
T/C [12]: 180 % of control
T/C (dose: 66.0 mg/kg/injection, schedule: Q01DX009 (ip), vehicle: saline): 168 % of control
T/C (dose: 66.0 mg/kg/injection, schedule: Q04DX003 (ip), vehicle: saline): 123 % of control
T/C (dose: 100.0 mg/kg/injection, schedule: Q01DX009 (ip), vehicle: saline): 159 % of control and 200 % of control

CC1COC(Nc2cccc3c2CCCC3)=N1 (configuration not stated)
T/C (dose: 12.5 mg/kg/injection, schedule: Q04DX003 (ip), vehicle: saline with Tween-80): 100 % of control
T/C (dose: 25.0 mg/kg/injection, schedule: Q04DX003 (ip), vehicle: saline with Tween-80): 109 % of control
T/C [13]: 109 % of control

O=C1NC(=O)C(c2ccc(Cl)cc2)(c2ccccc2Cl)N1 (configuration not stated)
T/C (dose: 100.0 mg/kg/injection, schedule: Q04DX003 (ip), vehicle: saline sonified): 100 % of control
T/C (dose: 200.0 mg/kg/injection, schedule: Q04DX003 (ip), vehicle: saline sonified): 95 % of control
T/C (dose: 400.0 mg/kg/injection, schedule: Q04DX003 (ip), vehicle: saline sonified): 100 % of control

CCO/C=C1\SC(=S)N(Cc2ccccc2)C1=O
T/C (dose: 12.5 mg/kg/injection, schedule: Q01DX009 (ip), vehicle: other): 86 % of control
T/C (dose: 25.0 mg/kg/injection, schedule: Q01DX009 (ip), vehicle: other): 109 % of control
T/C (dose: 44.0 mg/kg/injection, schedule: Q04DX003 (ip), vehicle: other): 118 % of control
T/C (dose: 44.0 mg/kg/injection, schedule: Q04DX003 (ip), vehicle: saline + alcohol): 100 % of control
T/C (dose: 44.0 mg/kg/injection, schedule: Q04DX003 (ip), vehicle: saline with Tween-80): 118 % of control
T/C (dose: 100.0 mg/kg/injection, schedule: Q04DX003 (ip), vehicle: saline + alcohol): 104 % of control
T/C (dose: 150.0 mg/kg/injection, schedule: Q04DX003 (ip), vehicle: other): 154 % of control
T/C (dose: 150.0 mg/kg/injection, schedule: Q04DX003 (ip), vehicle: saline + alcohol): 95 % of control
T/C (dose: 150.0 mg/kg/injection, schedule: Q04DX003 (ip), vehicle: saline with Tween-80): 116 % of control

CC(C)N(C)C(C)(C)CO
T/C (dose: 50.0 mg/kg/injection, schedule: Q01DX001 (ip), vehicle: saline): 100 % of control
T/C (dose: 100.0 mg/kg/injection, schedule: Q01DX001 (ip), vehicle: saline): 100 % of control
T/C (dose: 200.0 mg/kg/injection, schedule: Q01DX001 (ip), vehicle: saline): 100 % of control

NC1=CC(=O)c2ccccc2C1=O
T/C (dose: 6.25 mg/kg/injection, schedule: Q01DX009 (ip), vehicle: saline with Tween-80): 101 % of control
T/C (dose: 12.5 mg/kg/injection, schedule: Q01DX009 (ip), vehicle: saline with Tween-80): 113 % of control
T/C [5]: 103 % of control
T/C [6]: 103 % of control

O=c1[nH]ccc2c(O)cccc12
T/C [6]: 96 % of control
T/C [13]: 100 % of control
T/C [7]: 92 % of control
T/C [1]: 95 % of control
T/C [11]: 96 % of control
T/C [8]: 91 % of control

C/C(=C\c1ccccc1)[N+](=O)[O-]
T/C (dose: 4.0 mg/kg/injection, schedule: Q01DX009 (ip), vehicle: Klucel (hydroxypropylcellulose) (HPC)): 101 % of control
T/C (dose: 6.2 mg/kg/injection, schedule: Q01DX009 (ip), vehicle: saline): 90 % of control
T/C [2]: 100 % of control
T/C (dose: 8.0 mg/kg/injection, schedule: Q01DX009 (ip), vehicle: Klucel (hydroxypropylcellulose) (HPC)): 108 % of control
T/C [3]: 90 % of control and 105 % of control
T/C (dose: 25.0 mg/kg/injection, schedule: Q01DX009 (ip), vehicle: Klucel (hydroxypropylcellulose) (HPC)): 100 % of control
T/C [4]: 90 % of control and 108 % of control and 119 % of control
T/C (dose: 25.0 mg/kg/injection, schedule: Q04DX003 (ip), vehicle: Klucel (hydroxypropylcellulose) (HPC)): 113 % of control
T/C (dose: 30.0 mg/kg/injection, schedule: Q01DX009 (ip), vehicle: Klucel (hydroxypropylcellulose) (HPC)): 118 % of control
T/C (dose: 44.0 mg/kg/injection, schedule: Q01DX009 (ip), vehicle: Klucel (hydroxypropylcellulose) (HPC)): 109 % of control
T/C [10]: 87 % of control
T/C [12]: 115 % of control and 123 % of control
T/C (dose: 50.0 mg/kg/injection, schedule: Q04DX003 (ip), vehicle: Klucel (hydroxypropylcellulose) (HPC)): 113 % of control
T/C (dose: 50.0 mg/kg/injection, schedule: Q04DX003 (ip), vehicle: saline): 100 % of control
T/C (dose: 67.0 mg/kg/injection, schedule: Q01DX009 (ip), vehicle: Klucel (hydroxypropylcellulose) (HPC)): 95 % of control
T/C (dose: 100.0 mg/kg/injection, schedule: Q04DX003 (ip), vehicle: saline): 109 % of control
T/C (dose: 200.0 mg/kg/injection, schedule: Q04DX003 (ip), vehicle: saline): 100 % of control
T/C (dose: 400.0 mg/kg/injection, schedule: Q04DX003 (ip), vehicle: saline): 109 % of control

CSc1ncnc2c1ncn2C1OC(CO)C(O)C1O (configuration not stated)
T/C (dose: 4.0 mg/kg/injection, schedule: Q01DX010 (ip), vehicle: saline): 113 % of control
T/C (dose: 8.0 mg/kg/injection, schedule: Q01DX010 (ip), vehicle: saline): 122 % of control
T/C (dose: 32.0 mg/kg/injection, schedule: Q01DX010 (ip), vehicle: saline): 118 % of control
